According to patent US8933052B2, “Uracyl spirooxetane nucleosides” (Janssen Products, LP, priority 2009, dated 2015):
Read-outs that look alike come from different tables or passages of the source.

What was measured:
HCV type 1b replicon = test: HCV replicon assay (Huh-Luc cells, luciferase readout); format: cell-based; settings: Hepatitis C virus, 72 h, read-out: EC50 (μM) (HCV)
Source text: (§1) The in vitro antiviral activity against HCV of the compounds of formula I can be tested in a cellular HCV replicon system based on Lohmann et al. (1999) Science 285:110-113, with the further modifications described by Krieger et al. (2001) Journal of Virology 75: 4614-4624 (incorporated herein by reference), which is further exemplified in the examples section. This model, while not a complete infection model for HCV, is widely accepted as the most robust and efficient model of autonomous HCV RNA replication currently available. It will be appreciated that it is important to distinguish between compounds that specifically interfere with HCV functions from those that exert cytotoxic or cytostatic effects in the HCV replicon model, and as a consequence cause a decrease in HCV RNA or linked reporter enzyme concentration. Assays are known in the field for the evaluation of cellular cytotoxicity based for example on the activity of mitochondrial enzymes using fluorogenic redox dyes such as resazurin. Furthermore, cellular counter screens exist for the evaluation of non-selective inhibition of linked reporter gene activity, such as firefly luciferase. Appropriate cell types can be equipped by stable transfection with a luciferase reporter gene whose expression is dependent on a constitutively active gene promoter, and such cells can be used as a counter-screen to eliminate non-selective inhibitors.
The compounds of formula I were examined for activity in the inhibition of HCV-RNA replication in a cellular assay. […] The cellular assay was based on a bicistronic expression construct, as described by Lohmann et al. (1999) Science vol. 285 pp. 110-113 with modifications described by Krieger et al. (2001) Journal of Virology 75: 4614-4624, in a multi-target screening strategy.
In essence, the method was as follows. The assay utilized the stably transfected cell line Huh-7 luc/neo (hereafter referred to as Huh-Luc). This cell line harbors an RNA encoding a bicistronic expression construct comprising the wild type NS3-NS5B regions of HCV type 1b translated from an internal ribosome entry site (IRES) from encephalomyocarditis virus (EMCV), preceded by a reporter portion (FfL-luciferase), and a selectable marker portion (neo^R, neomycine phosphotransferase). The construct is bordered by 5′ and 3′ NTRs (non-translated regions) from HCV genotype 1b. Continued culture of the replicon cells in the presence of G418 (neo^R) is dependent on the replication of the HCV-RNA. The stably transfected replicon cells that express HCV-RNA, which replicates autonomously and to high levels, encoding inter alia luciferase, were used for screening the antiviral compounds.
The replicon cells were plated in 384-well plates in the presence of the test and control compounds which were added in various concentrations. Following an incubation of three days, HCV replication was measured by assaying luciferase activity (using standard luciferase assay substrates and reagents and a Perkin Elmer ViewLux™ ultraHTS microplate imager). Replicon cells in the control cultures have high luciferase expression in the absence of any inhibitor. The inhibitory activity of the compound on luciferase activity was monitored on the Huh-Luc cells, enabling a dose-response curve for each test compound. EC50 values were then calculated, which value represents the amount of the compound required to decrease the level of detected luciferase activity by 50%, or more specifically, the ability of the genetically linked HCV replicon RNA to replicate.

[1] = Cytotoxicity in Huh-7 cells; format: cell-based; settings: human
Source text: as §1, with “inhibitors. […]” for “inhibitors.”

HIV [2] = test: HIV activity; format: cell-based; settings: Human immunodeficiency virus 1, read-out: EC50 (μM) (HIV)
Source text: (§2) Also the HIV activity is given (EC50 HIV (μM)) and the cellular toxicity in the HIV cell-line (CC50 (μM) (MT-4)).

[3] = Cellular toxicity in the HIV cell-line MT-4; format: cell-based; settings: human, MT-4 cells, read-out: CC50 (μM) (MT4)
Source text: as §2

HIV [4] = settings: described in Org. Biomol. Chem., 2003, 3514-3526; cited from earlier work
[5] = Huh-Luc replicon cells, HCV type 1b, three days incubation, luciferase activity

| Structure (SMILES) | EC50 (HCV type 1b replicon; [5]) [µM] | CC50 [1] [µM] | EC50 (HIV [2]) [µM] | CC50 [3] [µM] | activity against HIV (HIV [4]) | EC50 (HCV type 1b replicon) [µM] |
| --- | --- | --- | --- | --- | --- | --- |
| CCCCOC(=O)[C@H](C)NP(=O)(OC[C@H]1O[C@@H](n2ccc(=O)[nH]c2=O)[C@@]2(CCO2)[C@@H]1O)Oc1ccccc1 (stereo partly drawn) [Compound 12d] | 5.5 | > 98 | > 98 | > 98 | – | – |
| CC[C@H](NP(=O)(OC[C@H]1O[C@@H](n2ccc(=O)[nH]c2=O)[C@@]2(CCO2)[C@@H]1O)Oc1ccccc1)C(=O)OC(C)C (stereo partly drawn) [Compound 12i] | > 96 | > 98 | > 98 | > 98 | – | – |
| Cc1cn([C@@H]2O[C@H](CO)[C@@H](O)[C@]23CCO3)c(=O)[nH]c1=O [1-(2-O,2-C-ethano-β-D-ribofuranosyl)thymine] | – | – | – | – | no activity | – |
| O=c1ccn([C@@H]2O[C@H](CO)[C@@H](O)[C@]23CCO3)c(=O)[nH]1 [1-(2-O,2-C-ethano-β-D-ribofuranosyl)uracil] | – | – | – | – | no activity | – |
| C[C@H](NP(=O)(OC[C@H]1O[C@@H](n2ccc(=O)[nH]c2=O)[C@@]2(CCO2)[C@@H]1O)Oc1cccc2ccccc12)C(=O)OCc1ccccc1 (stereo partly drawn) [Compound 12k] | 2 | > 98 | > 76.9 | > 98 | – | – |
| Cc1ccc(C(C)C)c(OP(=O)(N[C@@H](C)C(=O)OCc2ccccc2)OC[C@H]2O[C@@H](n3ccc(=O)[nH]c3=O)[C@@]3(CCO3)[C@@H]2O)c1 (stereo partly drawn) [Compound 12f] | 8.7 | 18.7 | > 98 | 1.3 | – | – |
| CC(C)COC(=O)[C@H](C)NP(=O)(OC[C@H]1O[C@@H](n2ccc(=O)[nH]c2=O)[C@@]2(CCO2)[C@@H]1O)Oc1ccccc1 (stereo partly drawn) [Compound 12l] | 0.44 | > 98 | > 98 | > 98 | – | – |
| O=C(CNP(=O)(OC[C@H]1O[C@@H](n2ccc(=O)[nH]c2=O)[C@@]2(CCO2)[C@@H]1O)Oc1ccc(Cl)cc1)OCc1ccccc1 (stereo partly drawn) [Compound 12m] | 7.17 | > 98 | > 98 | > 98 | – | – |
| COC(=O)C(C)(C)NP(=O)(OC[C@H]1O[C@@H](n2ccc(=O)[nH]c2=O)[C@@]2(CCO2)[C@@H]1O)Oc1ccccc1 (stereo partly drawn) [Compound 12e, methyl 2-[[[(4R,5R,7R,8R)-5-(2,4-dioxo-3,4-dihydropyrimidin-1(2H)-yl)-8-hydroxy-1,6-dioxaspiro[3.4]octan-7-yl]methoxy](phenoxy)phosphorylamino]-2-methylpropanoate] | 23.4 | > 98 | > 98 | > 98 | – | – |
| C[C@H](NP(=O)(OC[C@H]1O[C@@H](n2ccc(=O)[nH]c2=O)[C@@]2(CCO2)[C@@H]1O)Oc1ccc(Cl)cc1)C(=O)OCc1ccccc1 (stereo partly drawn) [Compound 12j] | 0.7 | > 98 | > 98 | > 98 | – | – |
| CC(C)OC(=O)[C@H](C)NP(=O)(OC[C@H]1O[C@@H](n2ccc(=O)[nH]c2=O)[C@@]2(CCO2)[C@@H]1O)Oc1ccccc1 (stereo partly drawn) [Compound 12g] | 17.8 | > 98 | > 98 | > 98 | – | – |
| C[C@H](NP(=O)(OC[C@H]1O[C@@H](n2ccc(=O)[nH]c2=O)[C@@]2(CCO2)[C@@H]1O)Oc1ccccc1)C(=O)OCC(C)(C)C (stereo partly drawn) [Compound 12c] | 5.6 | > 98 | > 98 | > 98 | – | – |
| C[C@H](NP(=O)(OC[C@H]1O[C@@H](n2ccc(=O)[nH]c2=O)[C@@]2(CCO2)[C@@H]1O)Oc1ccccc1)C(=O)OCc1ccccc1 (stereo partly drawn) [Compound 12b] | 3.7 | > 98 | > 98 | > 98 | – | – |
| O=C(OCc1ccccc1)[C@@H](NP(=O)(OC[C@H]1O[C@@H](n2ccc(=O)[nH]c2=O)[C@@]2(CCO2)[C@@H]1O)Oc1ccccc1)c1ccccc1 (stereo partly drawn) [Compound 12h] | – | > 88 | > 98 | > 98 | – | 79.6 |
| CC[C@H](NP(=O)(OC[C@H]1O[C@@H](n2ccc(=O)[nH]c2=O)[C@@]2(CCO2)[C@@H]1O)Oc1ccccc1)C(=O)OCc1ccccc1 (stereo partly drawn) [Compound 12a] | 3.4 | > 98 | > 98 | > 98 | – | – |
